Reference: patent US12215129B2, “Antibacterial cyclopeptides targeting acinetobacter and other gram-negative pathogens” (priority 2020, dated 2025)
Starred links: 1 amine or outer side, 2 acyl side, 3 side chain; linkers in the order of their positions; H or OH if unused. Positions of bridges follow the written chain, without caps; N, C: chain ends. Non-standard residues stand in square brackets, D forms with d. Residues, ends and D or L forms follow the SMILES beside them. *: point of attachment. dAsp(3R-OH) = N[C@@H](C(=O)O)[C@@H](O)C(=O)O; X1 = NC[C@H](O)[C@@H](N[*:1])C(=O)[*:2]; X2 = CCC(C)(O)[C@H](N[*:1])C(=O)[*:2]; d(aIle) = CC[C@H](C)[C@@H](N)C(=O)O; Myristoyl = CCCCCCCCCCCCCC(=O)*; dOrn = NCCC[C@@H](N)C(=O)O; hSer = N[C@@H](CCO)C(=O)O

How the values were obtained:
[1] = mouse, in vivo
in vivo = conditions: female, BALB/c, mouse
[2] = iv, 5 mg/kg, Mean plasma concentration

CCCCCCCCCCCCCC(=O)N[C@H](CCCN)C(=O)N[C@@H](CO)C(=O)N[C@H](C(=O)N[C@@H](C(=O)N[C@@H](C(=O)N[C@@H]1C(=O)NCC(=O)N[C@@H](C(C)(O)CC)C(=O)N[C@H]([C@@H](C)CC)C(=O)N[C@@H](CCO)C(=O)N[C@@H](C)C(=O)N[C@H]([C@@H](C)CC)C(=O)N[C@@H](CCC(=O)O)C(=O)O[C@@H]1C)[C@@H](O)CN)[C@@H](O)C(=O)O)C(C)C (stereo partly drawn) [Compound 1, Turnercyclamycin A] (Myristoyl-[dOrn]SV[dAsp(3R-OH)][X1]TG[X2][d(aIle)][hSer]A[d(aIle)]E; ester 6-C)
B.W. (g) [1]: − | Body Temperature [1]: − | Convulsion [1]: − | Convulsion C.T.C-T [1]: − | Dec. Exploration [1]: − | Dec. Palpebral [1]: − | Dec. Palpebral Size [1]: − | Dec. Startle [1]: − | Dec. Startle Response [1]: − | Dec. Touch [1]: − | Dec. Touch Response [1]: − | Diarrhea [1]: − | Grip Strength [1]: − | Hyperactivity [1]: − | Inc. Exploration [1]: − | Inc. Palpebral Size [1]: − | Inc. Startle [1]: − | Lacrimation [1]: − | Limb Tone [1]: + | Piloerection [1]: ± | Pinna [1]: − | Placing [1]: − | Righting [1]: − | Salivation F.V. [1]: − | Skin Color [1]: − | Straub Tail [1]: − | adverse effects noted after the two administrations [1]: decrease in adnominal tone, limb tone, and spontaneous activity, and tremor, piloerection, and increase in the respiration rate (fast) | dose up to which well tolerated in mice [1]: up to 50 mg/kg | more pronounced adverse effects elicited [1]: vocalization, ataxia, reactivity, and hunch back | clearance (in vivo): 0.29 mL/min/kg | AUC(0-inf) (in vivo; iv, 5 mg/kg): 290 µg·h/mL | AUC(0-t) (in vivo; iv, 5 mg/kg): 285 µg·h/mL | C0 (in vivo; iv, 5 mg/kg): 33700 ng/mL | MRT (in vivo; iv, 5 mg/kg): 5.83 h | Vd (in vivo; iv, 5 mg/kg): 0.1 L/kg | clearance (in vivo; iv, 5 mg/kg): 0.29 mL/min/kg | half-life (in vivo; iv, 5 mg/kg): 261 min | level at 0.05 h (in vivo; [2]): 53.3 µg/mL | level at 0.167 h (in vivo; [2]): 38600 ng/mL | level at 0.5 h (in vivo; [2]): 33700 ng/mL | level at 1 h (in vivo; [2]): 29300 ng/mL | level at 2 h (in vivo; [2]): 26200 ng/mL | level at 4 h (in vivo; [2]): 22500 ng/mL | level at 8 h (in vivo; [2]): 12000 ng/mL | level at 24 h (in vivo; [2]): 931 ng/mL | level at 0.5 h (in vivo; iv, 5 mg/kg, Sample concentration in plasma (individual mouse)): 34400 ng/mL
